Test results published in the supplement of paper PMC8741786.
In brackets after ≈: the same amount, converted by molar mass.

What was measured:
Experiment in all cases: minimum inhibitory concentration (ETEST)
Neisseria lactamica = conditions: population: general population, antibiotic use in previous 6 months: No
Procedure: (§1)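 Oropharyngeal Neisseria isolates from MSM and employees in Belgium were identified to species by MALDI-TOF MS. MICs of azithromycin, ceftriaxone and ciprofloxacin were determined by ETEST on GC agar after 24 h at 36.5 °C and 5-7% CO2, in mg/L. Values beyond the strip range are reported as >256 (azithromycin) or <0.016 (ceftriaxone); isolates that did not grow are NA.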

Neisseria elongata = conditions: population: general population, antibiotic use in previous 6 months: No
Procedure: as §1

Neisseria bacilliformis = conditions: isolate id (sample isolate): Co000780_5; population: general population; antibiotic use in previous 6 months: No
Procedure: as §1

[1] = tested on: Neisseria subflava/flavescens/perflava
Procedure: as §1

## O=C(O)c1cn(C2CC2)c2cc(N3CCNCC3)c(F)cc2c1=O [ciprofloxacin]
Neisseria lactamica; isolate id (sample isolate): Co000761_1
  minimum inhibitory concentration: 0.19 mg/L (≈ 0.573 µM)
Neisseria lactamica; isolate id (sample isolate): Co000771_1
  minimum inhibitory concentration: 0.064 mg/L (≈ 0.193 µM)
Neisseria elongata; isolate id (sample isolate): Co000767_3
  minimum inhibitory concentration: 0.004 mg/L (≈ 0.0121 µM)
Neisseria elongata; isolate id (sample isolate): Co000780_1
  minimum inhibitory concentration: 0.004 mg/L (≈ 0.0121 µM)
Neisseria elongata; isolate id (sample isolate): Co000783_4
  minimum inhibitory concentration: 0.023 mg/L (≈ 0.0694 µM)
Neisseria bacilliformis
  minimum inhibitory concentration: 0.125 mg/L (≈ 0.377 µM)
[1]; isolate id (sample isolate): 19041762_1, population: MSM, antibiotic use in previous 6 months: Yes
  minimum inhibitory concentration: 1.5 mg/L (≈ 4.53 µM)
[1]; isolate id (sample isolate): 19041762_1.1, population: MSM, antibiotic use in previous 6 months: Yes
  minimum inhibitory concentration: 3 mg/L (≈ 9.05 µM)
[1]; isolate id (sample isolate): 19041780_1, population: MSM, antibiotic use in previous 6 months: Yes
  minimum inhibitory concentration: 0.25 mg/L (≈ 0.754 µM)
[1]; isolate id (sample isolate): 19042150_1, population: MSM, antibiotic use in previous 6 months: Yes
  minimum inhibitory concentration: 0.25 mg/L (≈ 0.754 µM)
[1]; isolate id (sample isolate): 19042150_3, population: MSM, antibiotic use in previous 6 months: Yes
  minimum inhibitory concentration: 0.032 mg/L (≈ 0.0966 µM)
[1]; isolate id (sample isolate): 19042756_1, population: MSM, antibiotic use in previous 6 months: Yes
  minimum inhibitory concentration: 1 mg/L (≈ 3.02 µM)
[1]; isolate id (sample isolate): 19042756_2, population: MSM, antibiotic use in previous 6 months: Yes
  minimum inhibitory concentration: 0.75 mg/L (≈ 2.26 µM)
[1]; isolate id (sample isolate): 19043201_1.1, population: MSM, antibiotic use in previous 6 months: No
  minimum inhibitory concentration: 0.25 mg/L (≈ 0.754 µM)
[1]; isolate id (sample isolate): 19043201_2.1, population: MSM, antibiotic use in previous 6 months: No
  minimum inhibitory concentration: 0.38 mg/L (≈ 1.15 µM)
[1]; isolate id (sample isolate): 19043201_3, population: MSM, antibiotic use in previous 6 months: No
  minimum inhibitory concentration: 0.25 mg/L (≈ 0.754 µM)
[1]; isolate id (sample isolate): 19043274_3, population: MSM, antibiotic use in previous 6 months: Yes
  minimum inhibitory concentration: 0.25 mg/L (≈ 0.754 µM)
[1]; isolate id (sample isolate): 19050474_1, population: MSM, antibiotic use in previous 6 months: No
  minimum inhibitory concentration: 0.25 mg/L (≈ 0.754 µM)
[1]; isolate id (sample isolate): 19050514_1, population: MSM, antibiotic use in previous 6 months: Yes
  minimum inhibitory concentration: 0.5 mg/L (≈ 1.51 µM)
[1]; isolate id (sample isolate): 19050949_1, population: MSM, antibiotic use in previous 6 months: No
  minimum inhibitory concentration: 0.016 mg/L (≈ 0.0483 µM)
[1]; isolate id (sample isolate): 19050949_2, population: MSM, antibiotic use in previous 6 months: No
  minimum inhibitory concentration: 0.38 mg/L (≈ 1.15 µM)
[1]; isolate id (sample isolate): 19050949_2.1, population: MSM, antibiotic use in previous 6 months: No
  minimum inhibitory concentration: 0.38 mg/L (≈ 1.15 µM)
[1]; isolate id (sample isolate): 19051904_2, population: MSM, antibiotic use in previous 6 months: Yes
  minimum inhibitory concentration: 0.38 mg/L (≈ 1.15 µM)
[1]; isolate id (sample isolate): 19051904_3, population: MSM, antibiotic use in previous 6 months: Yes
  minimum inhibitory concentration: 0.38 mg/L (≈ 1.15 µM)
[1]; isolate id (sample isolate): 19052394_1, population: MSM, antibiotic use in previous 6 months: Yes
  minimum inhibitory concentration: 0.19 mg/L (≈ 0.573 µM)
[1]; isolate id (sample isolate): 19052394_1.1, population: MSM, antibiotic use in previous 6 months: Yes
  minimum inhibitory concentration: 0.19 mg/L (≈ 0.573 µM)
[1]; isolate id (sample isolate): 19060089_1, population: MSM, antibiotic use in previous 6 months: Yes
  minimum inhibitory concentration: 0.38 mg/L (≈ 1.15 µM)
[1]; isolate id (sample isolate): 19062994_1, population: MSM, antibiotic use in previous 6 months: Yes
  minimum inhibitory concentration: 0.016 mg/L (≈ 0.0483 µM)
[1]; isolate id (sample isolate): Co000761_2, population: general population, antibiotic use in previous 6 months: No
  minimum inhibitory concentration: 0.012 mg/L (≈ 0.0362 µM)
[1]; isolate id (sample isolate): Co000761_3, population: general population, antibiotic use in previous 6 months: No
  minimum inhibitory concentration: 0.75 mg/L (≈ 2.26 µM)
[1]; isolate id (sample isolate): Co000761_5, population: general population, antibiotic use in previous 6 months: No
  minimum inhibitory concentration: 0.38 mg/L (≈ 1.15 µM)
[1]; isolate id (sample isolate): Co000761_6, population: general population, antibiotic use in previous 6 months: No
  minimum inhibitory concentration: 0.008 mg/L (≈ 0.0241 µM)
[1]; isolate id (sample isolate): Co000762_3, population: general population, antibiotic use in previous 6 months: No
  minimum inhibitory concentration: 0.016 mg/L (≈ 0.0483 µM)
[1]; isolate id (sample isolate): Co000762_4, population: general population, antibiotic use in previous 6 months: No
  minimum inhibitory concentration: 0.016 mg/L (≈ 0.0483 µM)
[1]; isolate id (sample isolate): Co000763_2, population: general population, antibiotic use in previous 6 months: No
  minimum inhibitory concentration: 0.008 mg/L (≈ 0.0241 µM)
[1]; isolate id (sample isolate): Co000764_1, population: general population, antibiotic use in previous 6 months: No
  minimum inhibitory concentration: 0.032 mg/L (≈ 0.0966 µM)
[1]; isolate id (sample isolate): Co000764_2, population: general population, antibiotic use in previous 6 months: No
  minimum inhibitory concentration: 0.047 mg/L (≈ 0.142 µM)
[1]; isolate id (sample isolate): Co000765_2, population: general population, antibiotic use in previous 6 months: No
  minimum inhibitory concentration: 0.023 mg/L (≈ 0.0694 µM)
[1]; isolate id (sample isolate): Co000765_3, population: general population, antibiotic use in previous 6 months: No
  minimum inhibitory concentration: 0.016 mg/L (≈ 0.0483 µM)
[1]; isolate id (sample isolate): Co000765_4, population: general population, antibiotic use in previous 6 months: No
  minimum inhibitory concentration: 0.012 mg/L (≈ 0.0362 µM)
[1]; isolate id (sample isolate): Co000766_1, population: general population, antibiotic use in previous 6 months: No
  minimum inhibitory concentration: 0.047 mg/L (≈ 0.142 µM)
[1]; isolate id (sample isolate): Co000766_3, population: general population, antibiotic use in previous 6 months: No
  minimum inhibitory concentration: 0.008 mg/L (≈ 0.0241 µM)
[1]; isolate id (sample isolate): Co000767_1, population: general population, antibiotic use in previous 6 months: No
  minimum inhibitory concentration: 0.008 mg/L (≈ 0.0241 µM)
[1]; isolate id (sample isolate): Co000767_2, population: general population, antibiotic use in previous 6 months: No
  minimum inhibitory concentration: 1 mg/L (≈ 3.02 µM)
[1]; isolate id (sample isolate): Co000767_4, population: general population, antibiotic use in previous 6 months: No
  minimum inhibitory concentration: 0.016 mg/L (≈ 0.0483 µM)
[1]; isolate id (sample isolate): Co000767_5, population: general population, antibiotic use in previous 6 months: No
  minimum inhibitory concentration: 0.38 mg/L (≈ 1.15 µM)
[1]; isolate id (sample isolate): Co000767_6, population: general population, antibiotic use in previous 6 months: No
  minimum inhibitory concentration: 0.006 mg/L (≈ 0.0181 µM)
[1]; isolate id (sample isolate): Co000767_7, population: general population, antibiotic use in previous 6 months: No
  minimum inhibitory concentration: 0.38 mg/L (≈ 1.15 µM)
[1]; isolate id (sample isolate): Co000768_1, population: general population, antibiotic use in previous 6 months: No
  minimum inhibitory concentration: 0.006 mg/L (≈ 0.0181 µM)
[1]; isolate id (sample isolate): Co000768_2, population: general population, antibiotic use in previous 6 months: No
  minimum inhibitory concentration: 0.008 mg/L (≈ 0.0241 µM)
[1]; isolate id (sample isolate): Co000769_1, population: general population, antibiotic use in previous 6 months: No
  minimum inhibitory concentration: 0.5 mg/L (≈ 1.51 µM)
[1]; isolate id (sample isolate): Co000769_2, population: general population, antibiotic use in previous 6 months: No
  minimum inhibitory concentration: 0.008 mg/L (≈ 0.0241 µM)
[1]; isolate id (sample isolate): Co000769_4, population: general population, antibiotic use in previous 6 months: No
  minimum inhibitory concentration: 0.5 mg/L (≈ 1.51 µM)
[1]; isolate id (sample isolate): Co000770_2, population: general population, antibiotic use in previous 6 months: No
  minimum inhibitory concentration: 0.25 mg/L (≈ 0.754 µM)
[1]; isolate id (sample isolate): Co000770_4, population: general population, antibiotic use in previous 6 months: No
  minimum inhibitory concentration: 0.5 mg/L (≈ 1.51 µM)
[1]; isolate id (sample isolate): Co000770_6, population: general population, antibiotic use in previous 6 months: No
  minimum inhibitory concentration: 0.047 mg/L (≈ 0.142 µM)
[1]; isolate id (sample isolate): Co000771_2, population: general population, antibiotic use in previous 6 months: No
  minimum inhibitory concentration: 1 mg/L (≈ 3.02 µM)
[1]; isolate id (sample isolate): Co000771_3, population: general population, antibiotic use in previous 6 months: No
  minimum inhibitory concentration: 0.006 mg/L (≈ 0.0181 µM)
[1]; isolate id (sample isolate): Co000771_5, population: general population, antibiotic use in previous 6 months: No
  minimum inhibitory concentration: 0.016 mg/L (≈ 0.0483 µM)
[1]; isolate id (sample isolate): Co000772_1, population: general population, antibiotic use in previous 6 months: No
  minimum inhibitory concentration: 0.023 mg/L (≈ 0.0694 µM)
[1]; isolate id (sample isolate): Co000772_2, population: general population, antibiotic use in previous 6 months: No
  minimum inhibitory concentration: 0.016 mg/L (≈ 0.0483 µM)
[1]; isolate id (sample isolate): Co000772_4, population: general population, antibiotic use in previous 6 months: No
  minimum inhibitory concentration: 0.016 mg/L (≈ 0.0483 µM)
[1]; isolate id (sample isolate): Co000772_5, population: general population, antibiotic use in previous 6 months: No
  minimum inhibitory concentration: 0.012 mg/L (≈ 0.0362 µM)
[1]; isolate id (sample isolate): Co000772_6, population: general population, antibiotic use in previous 6 months: No
  minimum inhibitory concentration: 0.008 mg/L (≈ 0.0241 µM)
[1]; isolate id (sample isolate): Co000773_1, population: general population, antibiotic use in previous 6 months: No
  minimum inhibitory concentration: 0.38 mg/L (≈ 1.15 µM)
[1]; isolate id (sample isolate): Co000773_2, population: general population, antibiotic use in previous 6 months: No
  minimum inhibitory concentration: 0.38 mg/L (≈ 1.15 µM)
